Experimental data reported in ChEMBL document CHEMBL1158623, “In silico characterization of cytisinoids docked into an acetylcholine binding protein” (Bioorg Med Chem Lett, 2010).

The compounds below were run against Neuronal acetylcholine receptor; alpha4/beta2 (Rattus norvegicus, UniProt P09483+P12390) (assay: Displacement of [3H]epibatidine from rat alpha4beta2 nAChR).
Chain of Neuronal acetylcholine receptor; alpha4/beta2 (P09483 whole entry): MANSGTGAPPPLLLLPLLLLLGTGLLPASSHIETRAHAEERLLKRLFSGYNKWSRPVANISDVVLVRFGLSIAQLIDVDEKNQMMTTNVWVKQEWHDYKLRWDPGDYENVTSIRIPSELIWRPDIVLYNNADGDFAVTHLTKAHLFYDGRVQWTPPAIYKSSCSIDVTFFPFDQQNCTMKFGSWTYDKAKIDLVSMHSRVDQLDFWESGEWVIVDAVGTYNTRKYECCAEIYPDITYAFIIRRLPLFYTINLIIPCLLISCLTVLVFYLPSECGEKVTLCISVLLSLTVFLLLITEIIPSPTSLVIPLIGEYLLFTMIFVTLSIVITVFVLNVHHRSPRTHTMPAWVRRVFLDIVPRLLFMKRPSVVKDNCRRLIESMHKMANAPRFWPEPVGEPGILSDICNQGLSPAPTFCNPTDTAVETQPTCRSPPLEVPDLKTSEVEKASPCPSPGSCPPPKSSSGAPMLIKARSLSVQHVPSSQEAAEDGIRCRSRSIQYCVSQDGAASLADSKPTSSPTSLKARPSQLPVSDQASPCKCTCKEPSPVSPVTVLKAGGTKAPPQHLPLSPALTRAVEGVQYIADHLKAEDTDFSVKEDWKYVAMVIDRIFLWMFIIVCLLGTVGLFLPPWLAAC
Chain of Neuronal acetylcholine receptor; alpha4/beta2 (P12390 whole entry): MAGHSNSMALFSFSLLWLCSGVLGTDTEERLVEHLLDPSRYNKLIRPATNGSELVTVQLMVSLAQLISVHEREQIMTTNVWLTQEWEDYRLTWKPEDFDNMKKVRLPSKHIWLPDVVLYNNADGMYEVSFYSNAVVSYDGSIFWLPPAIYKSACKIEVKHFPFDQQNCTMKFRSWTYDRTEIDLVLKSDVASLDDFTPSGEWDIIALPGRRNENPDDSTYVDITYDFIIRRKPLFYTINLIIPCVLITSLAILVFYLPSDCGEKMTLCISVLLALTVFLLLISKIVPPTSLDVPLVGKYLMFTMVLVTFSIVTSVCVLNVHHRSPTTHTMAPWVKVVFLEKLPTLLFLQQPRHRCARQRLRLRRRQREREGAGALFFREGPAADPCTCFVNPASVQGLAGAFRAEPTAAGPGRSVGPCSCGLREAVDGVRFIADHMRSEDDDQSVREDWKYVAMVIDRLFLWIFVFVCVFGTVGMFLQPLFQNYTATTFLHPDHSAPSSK
Assay type: protein-complex assay
Compound `CN1C[C@@H]2C[C@H](C1)c1ccc(Br)c(=O)n1C2` has an IC50 of 102 nM. `O=c1c(Br)cc(Br)c2n1C[C@@H]1CNC[C@H]2C1` showed an IC50 of 372 nM. In the case of `O=c1ccc(Br)c2n1C[C@@H]1CNC[C@H]2C1`, the IC50 is reported as 457 nM. In the case of `CN1C[C@@H]2C[C@H](C1)c1cccc(=O)n1C2`, the IC50 is reported as 112 nM. With `O=c1c(I)ccc2n1C[C@@H]1CNC[C@H]2C1` the IC50 was 0.245 nM. `O=c1c(Br)ccc2n1C[C@@H]1CNC[C@H]2C1` gave an IC50 of 0.309 nM. `O=c1cccc2n1C[C@@H]1CNC[C@H]2C1` [CYTISINICLINE] showed an IC50 of 69.2 nM.
